Reference: ChEMBL document CHEMBL1156250, “Novel three-component domino reactions of ketones, isatin and amino acids: synthesis and discovery of antimycobacterial activity of highly functionalised novel dispiropyrrolidines” (2010)
Converted amounts (≈) assume the structure as drawn.

What was measured:
Assay type in all cases: functional
[1] = test system: Mycobacterium tuberculosis; test: Antimycobacterial activity against Mycobacterium tuberculosis H37Rv by agar dilution method
[2] = test system: Mycobacterium tuberculosis; test: Ratio of compound MIC over pyrazinamide MIC for Mycobacterium tuberculosis H37Rv
[3] = test system: Mycobacterium tuberculosis; test: Ratio of compound MIC over ethambutol MIC for Mycobacterium tuberculosis H37Rv

| SMILES | MIC [1] [µM] | further results |
| --- | --- | --- |
| NNC(=O)c1ccncc1 [ISONIAZID] | 0.36 (≈ 0.0494 µg/mL) |  |
| CC(C)c1cccc2c1NC(=O)C21N(C)CCC12CCCC2=O (stereo not drawn) | 160 (≈ 50 µg/mL) |  |
| CN1CCC2(CCCCC2=O)C12C(=O)Nc1ccc(Br)cc12 (stereo not drawn) | 4.29 (≈ 1.56 µg/mL) |  |
| CN1CCC2(CCCCC2=O)C12C(=O)Nc1ccc(Cl)cc12 (stereo not drawn) | 39.2 (≈ 12.5 µg/mL) |  |
| O=C1Nc2ccc(Br)cc2C12C1CCCN1C1(C(=O)Nc3ccc(Br)cc31)C1CCCN12 (stereo not drawn) | 5.61 (≈ 3.13 µg/mL) |  |
| CC(C)c1cccc2c1NC(=O)C21N(C)CCC12CCCCCC2=O (stereo not drawn) | 73.4 (≈ 25 µg/mL) |  |
| Cc1ccc2c(c1)C1(C(=O)N2)N(C)CCC12CN(N=O)CCC2=O (stereo not drawn) | 4.75 (≈ 1.56 µg/mL) |  |
| CC(C)c1cccc2c1NC(=O)C21NC(c2ccccc2)C(c2ccccc2)C12CN(c1ccccc1)CCC2=O (stereo not drawn) | 22.5 (≈ 12.2 µg/mL) |  |
| O=C1Nc2ccc(Cl)cc2C12NC(c1ccccc1)C(c1ccccc1)C21CN(c2ccccc2)CCC1=O (stereo not drawn) | 22.8 (≈ 12.2 µg/mL) |  |
| O=C1Nc2ccc(Br)cc2C12NC(c1ccccc1)C(c1ccccc1)C21CCCCC1=O (stereo not drawn) | 6.24 (≈ 3.13 µg/mL) |  |
| Cc1ccc2c(c1)C1(C(=O)N2)N(C)CCC12CCCCC2=O (stereo not drawn) | 41.9 (≈ 12.5 µg/mL) |  |
| CN1CCC(=O)C2(CCN(C)C23C(=O)Nc2ccc(Br)cc23)C1 (stereo not drawn) | 33 (≈ 12.5 µg/mL) |  |
| CN1CCC2(CN(N=O)CCC2=O)C12C(=O)Nc1ccc(Cl)cc12 (stereo not drawn) | 4.47 (≈ 1.56 µg/mL) |  |
| CN1CCC2(CCCCCC2=O)C12C(=O)Nc1ccc(Br)cc12 (stereo not drawn) | 4.13 (≈ 1.56 µg/mL) |  |
| NC(=O)c1cnccn1 [PYRAZINAMIDE] | 50.8 (≈ 6.25 µg/mL) |  |
| CC[C@@H](CO)NCCN[C@@H](CC)CO [ETHAMBUTOL] | 7.64 (≈ 1.56 µg/mL) |  |
| CN1CCC2(CCCC2=O)C12C(=O)Nc1ccc(Br)cc12 (stereo not drawn) | 8.96 (≈ 3.13 µg/mL) |  |
| CC(C)c1cccc2c1NC(=O)C21NC(c2ccccc2)C(c2ccccc2)C12CCCCC2=O (stereo not drawn) | 13.4 (≈ 6.25 µg/mL) |  |
| Cc1ccc2c(c1)C1(C(=O)N2)N(C)CCC12CCCCCC2=O (stereo not drawn) | 40 (≈ 12.5 µg/mL) |  |
| O=C1Nc2ccccc2C12C1CCCN1C1(C(=O)Nc3ccccc31)C1CCCN12 (stereo not drawn) | 125 (≈ 50 µg/mL) |  |
| Cc1ccc2c(c1)C1(NC(c3ccccc3)C(c3ccccc3)C13CN(c1ccccc1)CCC3=O)C(=O)N2 (stereo not drawn) | 23.7 (≈ 12.2 µg/mL) |  |

| SMILES | MIC [1] [µM] | further results |
| --- | --- | --- |
| CN1CCC2(CCCCCC2=O)C12C(=O)Nc1ccc(Cl)cc12 (stereo not drawn) | 18.8 (≈ 6.25 µg/mL) |  |
| Cc1ccc2c(c1)C1(NC(c3ccccc3)C(c3ccccc3)C13CN(C)CCC3=O)C(=O)N2 (stereo not drawn) | 55.4 (≈ 25 µg/mL) |  |
| Cc1ccc2c(c1)C1(C(=O)N2)N(C)CCC12CN(C)CCC2=O (stereo not drawn) | 19.9 (≈ 6.25 µg/mL) |  |
| CN1CCC2(CCCC2=O)C12C(=O)Nc1ccc(Cl)cc12 (stereo not drawn) | 41 (≈ 12.5 µg/mL) |  |
| O=C1Nc2ccccc2C12NC(c1ccccc1)C(c1ccccc1)C21CCCCC1=O (stereo not drawn) | 118 (≈ 50 µg/mL) |  |
| CN1CCC(=O)C2(C1)C(c1ccccc1)C(c1ccccc1)NC21C(=O)Nc2ccc(Br)cc21 (stereo not drawn) | 6.06 (≈ 3.13 µg/mL) |  |
| CN1CCC(=O)C2(CCN(C)C23C(=O)Nc2ccc(Cl)cc23)C1 (stereo not drawn) | 37.5 (≈ 12.5 µg/mL) |  |
| O=C1Nc2ccc(Cl)cc2C12C1CCCN1C1(C(=O)Nc3ccc(Cl)cc31)C1CCCN12 (stereo not drawn) | 26.6 (≈ 12.5 µg/mL) |  |
| CN1CCC2(CN(N=O)CCC2=O)C12C(=O)Nc1ccc(Br)cc12 (stereo not drawn) | 1.98 (≈ 0.779 µg/mL) | Ratio [2]: 25.64; Ratio [3]: 3.86 |
| CC(C)c1cccc2c1NC(=O)C21N(C)CCC12CN(C)CCC2=O (stereo not drawn) | 36.6 (≈ 12.5 µg/mL) |  |
| O=C1Nc2ccc(Cl)cc2C12NC(c1ccccc1)C(c1ccccc1)C21CCCCC1=O (stereo not drawn) | 13.7 (≈ 6.25 µg/mL) |  |
| Cc1ccc2c(c1)C1(C(=O)N2)C2CCCN2C2(C(=O)Nc3ccc(C)cc32)C2CCCN21 (stereo not drawn) | 29.2 (≈ 12.5 µg/mL) |  |
| Cc1ccc2c(c1)C1(NC(c3ccccc3)C(c3ccccc3)C13CCCCC3=O)C(=O)N2 (stereo not drawn) | 115 (≈ 50 µg/mL) |  |
| CC(C)c1cccc2c1NC(=O)C21NC(c2ccccc2)C(c2ccccc2)C12CCCC2=O (stereo not drawn) | 27.7 (≈ 12.5 µg/mL) |  |
| CC(C)c1cccc2c1NC(=O)C21N(C)CCC12CN(N=O)CCC2=O (stereo not drawn) | 8.78 (≈ 3.13 µg/mL) |  |
| O=C1Nc2ccc(Br)cc2C12NC(c1ccccc1)C(c1ccccc1)C21CN(c2ccccc2)CCC1=O (stereo not drawn) | 10.6 (≈ 6.1 µg/mL) |  |
| CC(C)c1cccc2c1NC(=O)C21NC(c2ccccc2)C(c2ccccc2)C12CN(C)CCC2=O (stereo not drawn) | 26.1 (≈ 12.5 µg/mL) |  |
| CC(C)c1cccc2c1NC(=O)C21N(C)CCC12CCCCC2=O (stereo not drawn) | 38.3 (≈ 12.5 µg/mL) |  |
| CN1CCC(=O)C2(C1)C(c1ccccc1)C(c1ccccc1)NC21C(=O)Nc2ccc(Cl)cc21 (stereo not drawn) | 26.5 (≈ 12.5 µg/mL) |  |
| O=C1Nc2ccccc2C12NC(c1ccccc1)C(c1ccccc1)C21CCCC1=O (stereo not drawn) | 61.2 (≈ 25 µg/mL) |  |
